Measured values published in patent US20090239875A1, “Protection of ferulic acid and/or tetramethylpyrazine against retinal ischaemia, glaucoma and siderosis oculi” (Committee on Chinese Medicine and Pharmacy, Department of …, priority 2008, published 2009).
Blank lines part the entries; values can stand above or below the molecule they belong to.

How the values were obtained:
[1] = test system: glutamate release in the retina
Experimental: Using the same microdialysis system as the ROS assay in vivo, each microdialysate was assayed for the presence of derivatized glutamate product by HPLC with a fluorescence detector (FL; model CMA/280, CMA/Microdialysis, Stockholm, Sweden). The derivatization reaction was carried out at room temperature. O-phthalaldehyde (OPA; 27 mg; Fisher Scientific, Loughborough, UK) was dissolved in 1 ml methanol, 9 ml 0.4 M potassium tetraborate (MW: 303.53; borate buffer: 1.5 g borate plus pure water adjusted to pH 9.5 with 6 M NaOH and then added with water to 100 ml) and 5 μl β-mercaptoethanol (Fisher Scientific, Loughborough, UK). The OPA stock reagent was covered in foil and stored at −20° C. for 1 month. The OPA working solution was prepared each day by diluting 1 ml of the OPA stock reagent with 3 ml of potassium tetraborate (0.4 M). […] For the HPLC separation, the detector output voltage (signal) was monitored using one data system (Scientific Information Service Corporation, Taiwan). […]
Before use, the mobile phase was filtered through a 0.22 μm filter (Millipore) using vacuum assistance. […] The detection sensitivity was 10 M. All standard samples and test samples were analyzed in duplicate.

[2] = test system: rats given experimental siderosis; assay: Flash ERG in experimental siderosis (intravitreous FeSO4 or iron particle); conditions: for Effect on FeSO4 induced reduction in the b-wave amplitudes: 0.5 or 0.1 nmoles pre-administered, 25 nmole FeSO4, 3 and 5 days after siderosis, vs saline-treated animals
Experimental: The animals were first dark adapted for at least 8 hours, anaesthetized as already described and the pupils dilated with 1% tropicamide and 2.5% phenylephrine. The animal was then placed in a stereotaxic frame and the body temperature maintained at 37° C. with an electrical blanket. A platinum wire loop was placed on the corneal surface to act as the recording electrode. A ground electrode was connected to the scruff of the back together with a reference electrode to the tongue of the animal. A strobe was placed 5 cm in front of the animal to provide a stimulus of 0.5 Hz. Fifteen consecutive responses were recorded at two-second intervals and at 10 kHz; the responses were amplified and averaged using an amplifier P511/regulated power supply RPS107/stimulator PS22 (Grass-Telefactor, Astro-Med. Inc., R1, USA). The a-wave amplitude was measured from the baseline to the trough of the a-wave and the b-wave amplitude was measured from the trough of the a-wave to the peak of the b-wave.
The Wistar rats were anesthetized with an intramuscular injection of ketamine (100 mg/kg) and xylazine (5 mg/kg), and placed in a stereotaxic frame. The chronic model of experimental siderosis was established as follows. Through a port punctured by a 20-gauge intravenous catheter (0.5 mm from the corneal limbus), an autoclaved defined iron particle was slowly and carefully implanted into the vitreous cavity of one eye of each experimental rat through the catheter sheath by the catheter inner shaft (a needle). The punctured wound was then sutured with sterilized 10-0 nylon to keep a close system. Similarly (0.5 mm from the corneal limbus) and guided by the 20-gauge intravenous catheter, an autoclaved acrylate chip was implanted into the vitreous cavity of one eye of each control rat.
Similarly, the acute model of experimental siderosis was set up utilizing various concentrations of iron sulfate with the control group being injected with saline. The animals were kept normothermic with a heated water jacket after anesthesia and were placed on an electrical blanket during recovery (both set at 37° C.).
(§2) Iron toxicity and the formation of .OH were stimulated by an intravitreous application of FeSO4 with or without the presence of the test compounds FA and/or TMP. For the dose-response iron toxicity experiments, 24 mM (72 nmoles), 8 mM (24 nmoles) and 0.8 mM (2.4 nmoles) of FeSO4 were utilized. To test drug biochemical effects on the oxidative stress caused by the experimental siderosis, an intravitreous injection of FA (100 mM) was carried out 60 minutes before siderosis. In further electro-physiological and immuohistochemical studies, with or without pre-administration of 0.5 or 0.1 nmoles of FA/TMP, a medium amount of FeSO4 (25 nmole) was chosen to induce damage due to such as an oxidative stress so as not to reach the maximal pharmacological effect.

[3] = test system: cortical cells; conditions: 40 μM FeSO4 vs saline; n=5
Experimental: The cortical cells to be tested were placed on a cover slip and loaded with calcium ion sensitive dye by incubation with a final concentration of 5 μM of the acetoxymethyl ester form of Fura-2 for 30 min at 37° C. in the 1 ml loading buffer. The cover slip was washed three times with buffer containing 150 mM NaCl, 5 mM KCl, 2.2 mM CaCl2, 1 mM MgCl2, 5 mM glucose, 10 mM HEPES, pH 7.4. A micropipette was pulled from a glass capillary by a micropipette puller (P-97, Sutter Instrument Co.) and the tip was polished in a microforge (o.d. 2 μm, MF-83, Narishige). The micropipette was backfilled with the test compound (40 μM FeSO4 or saline) using a fine tip syringe. The cover slip was mounted on an inverted microscope to measure single-cell fluorescence. The ejection mircropipette was positioned at a distance of 10 μm from a cell. A short pulse (0.5s) of the test compound was then applied to a single cell through the micropipette by a microinjection system (Picospritzer II, General Valve) with a pressure of 15 psi. The intracellular calcium concentration, [Ca^2+]i, was calculated using the ratio between the fluorescence at 340 nm and at 380 nm (F340/F380). Changes in the fluorescence ratio represent the changes in the [Ca^2+]i (Yang, D. M., et al. J Microsc 209: 223-227, 2003).

[4] = test system: hydroxyl radicals (.OH); assay: ROS assay in vivo (2,3-DHBA by vitreous microdialysis) in experimental siderosis
Experimental: Iron toxicity and the formation of .OH were stimulated by an intravitreous application of FeSO4 with or without the presence of the test compounds FA and/or TMP. For the dose-response iron toxicity experiments, 24 mM (72 nmoles), 8 mM (24 nmoles) and 0.8 mM (2.4 nmoles) of FeSO4 were utilized. To test drug biochemical effects on the oxidative stress caused by the experimental siderosis, an intravitreous injection of FA (100 mM) was carried out 60 minutes before siderosis.
Trapping of hydroxyl radicals was accomplished by perfusing physiological saline containing 5 mM salicylic acid through a microdialysis probe (CMA/12, PC 14/01, CMA/Microdialysis, Stockholm, Sweden) inserted into the vitreous cavity of a rat eye after intra-vitreous implantation of either an iron or acrylate chip for the defined chronic model and its control. […] Salicylate was infused at the rate of 1.1 μl/min using a 1-ml Exmire microsyringe attached to a microdialysis pump (CMA-100, CMA/Microdialysis, Stockholm, Sweden). This was carried out every 15 or 20 minutes starting either 60 or 20 minutes before the implantation/injection and continued for 6 hours or 120 minutes following treatment, respectively. […] The hydroxyl radicals were quantified by using 8, 16, 24, 32 and 40 pmoles of 2,3-DHBA (which is photosensitive and can be dissolved in ethanol) as an internal standard.

[5] = test system: ChAT immunoreactivity (cholinergic amacrine neurones) in the siderotic retina; assay: ChAT immunofluorescence of the retina after experimental siderosis; assay type: in vivo, Wistar rat; conditions: 0.5 nmole i.v.i. 60 minutes before siderosis; 25 nmole FeSO4 for 5 days
Experimental: as §2
The time course of the experiments involved enucleation of the rat eyes and retrieval of the retinal pieces on day 1 (Western blot), day 5 (immunohistochemistry) and day 28 (histopathology) after experimental siderosis with/without each test compound.
For immunohistochemical analysis, rats were intracardially perfused first with 0.9% saline and then with 4% (w/v) paraformaldehyde. […] In order to observe the expression of ‘ROS-related enzymes’, retinal sections were incubated with primary antibody: rabbit polyclonal anti-rat manganese SOD (1:100; Upstate, NY) or rabbit anti-catalase (1:1000; Calbiochem, CA). […]

[6] = test system: hydroxyl radicals (.OH); assay: Salicylate trapping / vitreous microdialysis of hydroxyl radicals (2,3-DHBA) in HIOP-induced retinal ischaemia; assay type: in vivo, Wistar rat; conditions: for Levels of 2,3-DHBA (.OH) in vitreous dialysate: at 60 minutes of HIOP-induced retinal ischaemia, n=4
Description: Rats were anesthetized and placed in a stereotaxic frame. This approach was adapted from Louzada-Junior et al with further modification. The microdilaysis tube was inserted into the vitreous cavity through the nonvascular pars plana of the sclera (0.5 mm from the corneal limbus) after it had been pre-punctured with a 25-gauge needle. This avoided the problem of bleeding into the vitreous cavity with consequent contamination of vitreous. With the microdialysis probe in position, the whole retina was subjected to HIOP-induced ischaemia for 120 minutes.
After an equilibration period of 45 min, a stable baseline was obtained. HIOP-induced retinal ischaemia was then performed. Samples were collected every 15 minutes starting 45 minutes before ischaemia and continuing for the subsequent 120-minute ischaemia. The microdialysates collected from the microdialysis probe were deposited into polyethylene vials (Microbiotech, Stockholm, Sweden) containing 15 μl of 0.1 M perchloric acid and were stored at −70° C. until analysis. The formation of .OH was quantified as the increase in 2,3-DHBA, which is the hydroxylative product of salicylic acid. Since 2,5-DHBA can also be produced via enzymatic pathways by virtue of P-450, 2,3-DHBA is considered to be a specific marker of .OH. Eluted microdialysates were directly injected into and 2,3-DHBA was analyzed by a high performance liquid chromatograph coupled with an electrochemical detector (HPLC-EC; Model LC-4C, Bioanalytical System Inc., West Lafayette, IN, USA).
The DHBA compound was oxidized using a glassy carbon working electrode (oxidation potential: +750 mV; model MF 1000, Bioanalytical System Inc., West Lafayette, IN, USA) and an Ag/AgCl reference electrode (model MW 2021, Bioanalytical System Inc., West Lafayette, IN, USA) with a special thin-layer gasket for the microbore LC-EC. In order to minimize dead volume, the column was connected directly between the micro-sampler and the working electrode. The mobile phase included 1-heptane sulfonic acid sodium salt (MW: 202.25) 3.15 g, EDTA 0.15 g, phosphoric acid 4.5 ml, triethylamine 5.25 ml, acetonitrile 255 ml, distilled water (added to 1.5 liters), pH 2.7. […] This is the first invention utilizing the defined modified microdialysis system for the measurement of .OH in the rat eye in vivo.
For electro-physiological, immuohistochemical, and molecular biological studies, drug administration was carried out with pre-administration (60 minutes before HIOP) of vehicle (saline for FA/TMP), FA (0.5 or 0.1 nmole), or TMP (0.5 nmole). The 60-minute HIOP procedure to induce ischaemic damage was carried out as defined. Intra-vitreous injection (i.v.i.) of 5 μl of each compound was given to the ‘ischaemic’ eye of each test rat using a 30-gauge needle attached to a 20 μl Hamilton syringe. […]

[7] = test system: Thy-1 immunoreactivity (retinal ganglion cells) in the ischaemic retina; assay: Thy-1 immunofluorescence of the retina after ischaemia/reperfusion; assay type: in vivo, Wistar rat; conditions: 0.5 nmole i.v.i. pre-treatment; 7 days after I/R
Experimental: (§1) For electro-physiological, immuohistochemical, and molecular biological studies, drug administration was carried out with pre-administration (60 minutes before HIOP) of vehicle (saline for FA/TMP), FA (0.5 or 0.1 nmole), or TMP (0.5 nmole). The 60-minute HIOP procedure to induce ischaemic damage was carried out as defined. Intra-vitreous injection (i.v.i.) of 5 μl of each compound was given to the ‘ischaemic’ eye of each test rat using a 30-gauge needle attached to a 20 μl Hamilton syringe. As a control, the same volume of vehicle was intravitreously injected into the “ischaemic” eye of each control rat. In both cases, the fellow untreated eye acted as a normal control eye. In this case, FA, TMP, or vehicle was applied only to the eye (ipsilateral) which received ischaemia. Dose-response experiments for FA will also be performed.
On day 7 after retinal ischaemia pre-treated with vehicle or tested compounds, the Wistar rats were killed by an overdose of sodium pentobarbitone injected into the peritoneal cavity as mentioned earlier. Rat retinas were carefully and rapidly dissected from the eyecups with the aim of completely detaching the sensory retina from the RPEs. They were incubated in Mg^2+-free Locke's buffer containing: 154 mM NaCl, 5.6 mM KCl, 2.3 mM CaCl2, 3.6 mM NaHCO3, 5 mM N-[2-hydroxyethyl]piperazine-N′-[2-ethanesulfonic acid] (HEPES) and 5.6 mM D-glucose. […]

[8] = test system: ChAT immunoreactivity (cholinergic amacrine cells) in the ischaemic retina; assay: ChAT immunofluorescence of the retina after ischaemia/reperfusion; assay type: in vivo, Wistar rat; conditions: 7 days reperfusion
Experimental: On day 7 after retinal ischaemia pre-treated with vehicle or tested compounds, the Wistar rats were killed by an overdose of sodium pentobarbitone injected into the peritoneal cavity as mentioned earlier. Rat retinas were carefully and rapidly dissected from the eyecups with the aim of completely detaching the sensory retina from the RPEs. They were incubated in Mg^2+-free Locke's buffer containing: 154 mM NaCl, 5.6 mM KCl, 2.3 mM CaCl2, 3.6 mM NaHCO3, 5 mM N-[2-hydroxyethyl]piperazine-N′-[2-ethanesulfonic acid] (HEPES) and 5.6 mM D-glucose. The Locke's solution was briefly equilibrated before use with a gas mixture of 95% O2 and 5% CO2 at 37° C., pH 7.4. Retinal pieces were fixed for a further 45 minutes in 4% (w/v) paraformaldehyde in sodium phosphate buffer (0.2 M NaH2PO4.2H2O; 0.2M Na2HPO4; pH 7.4) and then transferred to 30% sucrose in sodium phosphate buffer for cryosectioning. Retinas were orientated and similarly mounted on a metal stand using O.C.T. compound (Merck Ltd) and then promptly frozen with dry ice. In this way, sections from similar areas were produced and thus the retinal sections (10 μm) had approximately the same eccentricity, which allowed direct comparison. […]

[9] = test system: Thy-1 mRNA; assay: Semi-quantitative RT-PCR of Thy-1 mRNA in the retina after ischaemia/reperfusion; assay type: in vivo, Wistar rat; conditions: 7 days after I/R, sham operation 100.0000, n=4
Experimental: as §1
Levels of Thy-1 mRNAs present in the retinas were determined using a semi-quantitative RT-PCR technique. These were compared with the mRNA levels measured for the house-keeping gene β-actin as an internal standard (Nucci, C., et al. Invest Opthalmol V is Sci. 48(7):2997-3004, 2007). Seven days after sham operation alone or retinal ischaemia pre-treated with vehicle or defined chemicals, the rats were killed and the retinas removed and sonicated in TriReagent (as per manufacturer's instructions). Total retinal RNA was isolated and first strand cDNA synthesis was performed on 4 μg DNase-treated RNA (Nash, M. S., et al. Invest. Opthalmol. Vis. Sci. 40:1293-8, 1999). […]
The PCR reaction products were separated on 1.5% agarose gels using ethidium bromide for visualization. The relative abundance of each PCR product was determined by analyzing photographs of the gels by SigmaScan (Jandel Scientific, Corte Madera, Calif.). […]

[10] = test system: rats subjected to 60 min retinal ischaemia plus reperfusion (I/R); assay: Flash ERG b-wave ratio after 60 min HIOP-induced retinal ischaemia plus reperfusion; assay type: in vivo, Wistar rat
Description: Six-week old Wistar rats (body weight: 250˜500 g) were anaesthetized with an intramuscular injection of ketamine and xylazine as described above and placed in a stereotaxic frame. The anterior chamber of one eye, with the other serving as control, was cannulated with a 30-gauge needle connected to a 0.9% saline reservoir; this caused an increase in IOP to 120 mmHg. A whitening of the iris and the fundus of the retina confirmed induction of an ischaemic insult (Block, F., et al. Gen Pharmacol. 30(3):281-7, 1997).
as §1

[11] = FeSO4 injected five days earlier, particular example
[12] = 0.5 nmole i.v.i. 60 min before ischaemia
[13] = 0.5 nmole i.v.i. 1 hour before ischaemia
[14] = 0.5 nmole i.v.i. 60 min before 60 min HIOP, 3 days after I/R
[15] = 0.5 nmole i.v.i. 60 min before 60 min HIOP, 5 days after I/R
[16] = 0.5 nmole i.v.i. 60 min before 60 min HIOP, 7 days after I/R

Molecule: ferrous sulfate [FeSO4]
Glutamate release in the retina ([1]; 24 mM and/or 8 mM FeSO4, peaks 20 and 40 minutes after siderosis, vs saline): dose-dependent release of glutamate
Glutamate concentration in vitreous dialysate ([1]; 20 minutes after ferrous sulfate treatment (8 mM)): 722 nM
ERG b-wave ratio after intravitreous FeSO4 ([2]; 8 mM FeSO4 (3 μl) intravitreous, at 2 hours): about 45%
ERG a-wave ratio of siderotic eye to normal fellow eye [2, 11]: 40.56%
ERG b-wave ratio of siderotic eye to normal fellow eye [2, 11]: 30.70%
Change in [Ca^2+]i (fura-2 ratio F340/F380) [3]: significant increase
2,3-DHBA formed ([4]; 20 minutes after injection of 8 mM FeSO4): 91.23 pmol

Effect on FeSO4 induced reduction in the b-wave amplitudes [2]: significantly alleviated
ERG b-wave ratio (ischaemic eye vs contralateral normal eye) ([10]; 0.1 nmole i.v.i. 60 min before 60 min HIOP, 3 days after I/R): 32.2402±6.3012
ERG b-wave ratio (ischaemic eye vs contralateral normal eye) ([10]; 0.1 nmole i.v.i. 60 min before 60 min HIOP, 5 days after I/R): 35.0948±4.6412
ERG b-wave ratio (ischaemic eye vs contralateral normal eye) ([10]; 0.1 nmole i.v.i. 60 min before 60 min HIOP, 7 days after I/R): 47.0775±5.5396
ERG b-wave ratio (ischaemic eye vs contralateral normal eye) [10, 14]: 48.3576±3.1633
ERG b-wave ratio (ischaemic eye vs contralateral normal eye) [10, 15]: 56.4287±6.9891
ERG b-wave ratio (ischaemic eye vs contralateral normal eye) [10, 16]: 65.8600±6.0998
Molecule: COc1cc(/C=C/C(=O)O)ccc1O [FA, ferulic acid]
Effect on iron-induced changes in ChAT immunoreactivity [5]: counteracted
Levels of 2,3-DHBA (.OH) in vitreous dialysate ([6]; 0.1 nmole pre-treatment): 3.48 pmol/15 µL perfusate
Attenuation of ischaemia-evoked increased 2,3-DHBA levels ([6]; 0.5 nmole pre-treatment, 60 minutes of ischaemia, vs vehicle-pre-treated ischaemic eyes): around 2 folds
Levels of 2,3-DHBA (.OH) in vitreous dialysate ([6]; 0.5 nmole pre-treatment): 2.8574±0.7186 pmole/15 μl perfusate
Attenuation of ischaemia-induced reduction in thickness of Thy-1 immunolabeling [7]: around 15%
Effect on I/R-induced changes in ChAT immunoreactivity ([8]; 0.1 nmole i.v.i. 60 min before ischaemia): only a partial counteracting effect
Effect on I/R-induced changes in ChAT immunoreactivity [8, 12]: obviously nullified
Thy-1 mRNA/β-actin mRNA ratio ([9]; 0.1 nmole i.v.i. 1 hour before ischaemia): 65.8968±11.9579
Thy-1 mRNA/β-actin mRNA ratio [9, 13]: 85.1745±10.3177
Effect on production of OH (2,3-DHBA) in siderosis ([4]; 100 μM, siderotic rats insulted by 8 mM FeSO4, vs saline): significantly decreased
Effect on formation of .OH (2,3-DHBA) in siderosis ([4]; i.v.i. 60 minutes before siderosis, 8 mM FeSO4): dose-dependently and significantly decreased

Effect on FeSO4 induced reduction in the b-wave amplitudes [2]: tended to alleviate
ERG b-wave ratio (ischaemic eye vs contralateral normal eye) [10, 14]: 17.9250±11.7135
ERG b-wave ratio (ischaemic eye vs contralateral normal eye) [10, 15]: 17.1500±6.8996
ERG b-wave ratio (ischaemic eye vs contralateral normal eye) [10, 16]: 20.1750±8.5027
Molecule: Cc1nc(C)c(C)nc1C [TMP, tetramethylpyrazine]
Levels of 2,3-DHBA (.OH) in vitreous dialysate ([6]; 0.5 nmole pre-treatment): 4.6865±1.2661 pmole/15 μl perfusate
Effect on I/R-induced changes in ChAT immunoreactivity [8, 12]: not affected
Thy-1 mRNA/β-actin mRNA ratio [9, 13]: 46.5876±14.4476
